Experimental data reported in US10196390B2, “TYK2 inhibitors and uses thereof” (Nimbus Lakshmi, Inc., priority 2014, dated 2019).

Assays:
TYK2 = TYK2 (Homo sapiens (Human), UniProt P29597); test: Tyk2 activity inhibition assay (radioactive kinase assay / Caliper assay); format: biochemical
Experimental: Peptide substrate, [[…]], (20 μM) is prepared in reaction buffer (20 mM Hepes pH 7.5, 10 mM MgCl2, 1 mM EGTA, 0.02% Brij35, 0.02 mg/mL BSA, […], 2 mM DTT, 1% DMSO. TYK2 (Invitrogen) kinase is added, followed by compounds in DMSO. 33PATP is added to initiate the reaction in ATP at 10 μM. Kinase reaction is incubated for 120 min at room temp and reactions are spotted onto P81 ion exchange paper (Whatman #3698-915), and then washed extensively in 0.75% phosphoric acid, prior to reading the radioactivity counts. For JAK2 (Invitrogen) kinase assay the peptide substrate poly[Glu:Tyr](4:1), 0.2 mg/ml is used, in the reaction carried out the same as for TYK2.
(§1) The caliper machine employs an off chip mobility shift assay to detect phosphorylated peptide substrates from kinase assays, using microfluidics technology. The assays are carried out at ATP concentration equivalent to the ATP Km, and at 1 mM ATP. Compounds are serially diluted in DMSO then further diluted in assay buffer (25 mM HEPES, pH 7.5, 0.01% Brij-35, 0.01% Triton, 0.5 mM EGTA). 5 ul of diluted compound was added into wells first, then 10 ul of enzyme mix was added into wells, followed by 10 uL of substrate mix (peptide and ATP in 10 mM MgCl2) to start reaction. Reaction was incubated at 28° C. for 25 min and then added 25 ul stop buffer (100 mM HEPES, 0.015% Brij-35, 50 mM EDTA), followed by reading with Caliper. JAK2 at 1 nM final concentration and TYK2 at 9.75 nM are from Carna, and substrates used are ATP at 20 and 16 uM, respectively. JAK2 assay uses peptide 22 and TYK2 uses peptide 30 (Caliper), each at 3 uM.

JAK2 = JAK2 (Homo sapiens (Human), UniProt O60674); test: JAK2 activity inhibition assay (radioactive kinase assay / Caliper assay); format: biochemical; settings: read-out: JAK2 Ki
Chain of JAK2 (O60674 whole entry): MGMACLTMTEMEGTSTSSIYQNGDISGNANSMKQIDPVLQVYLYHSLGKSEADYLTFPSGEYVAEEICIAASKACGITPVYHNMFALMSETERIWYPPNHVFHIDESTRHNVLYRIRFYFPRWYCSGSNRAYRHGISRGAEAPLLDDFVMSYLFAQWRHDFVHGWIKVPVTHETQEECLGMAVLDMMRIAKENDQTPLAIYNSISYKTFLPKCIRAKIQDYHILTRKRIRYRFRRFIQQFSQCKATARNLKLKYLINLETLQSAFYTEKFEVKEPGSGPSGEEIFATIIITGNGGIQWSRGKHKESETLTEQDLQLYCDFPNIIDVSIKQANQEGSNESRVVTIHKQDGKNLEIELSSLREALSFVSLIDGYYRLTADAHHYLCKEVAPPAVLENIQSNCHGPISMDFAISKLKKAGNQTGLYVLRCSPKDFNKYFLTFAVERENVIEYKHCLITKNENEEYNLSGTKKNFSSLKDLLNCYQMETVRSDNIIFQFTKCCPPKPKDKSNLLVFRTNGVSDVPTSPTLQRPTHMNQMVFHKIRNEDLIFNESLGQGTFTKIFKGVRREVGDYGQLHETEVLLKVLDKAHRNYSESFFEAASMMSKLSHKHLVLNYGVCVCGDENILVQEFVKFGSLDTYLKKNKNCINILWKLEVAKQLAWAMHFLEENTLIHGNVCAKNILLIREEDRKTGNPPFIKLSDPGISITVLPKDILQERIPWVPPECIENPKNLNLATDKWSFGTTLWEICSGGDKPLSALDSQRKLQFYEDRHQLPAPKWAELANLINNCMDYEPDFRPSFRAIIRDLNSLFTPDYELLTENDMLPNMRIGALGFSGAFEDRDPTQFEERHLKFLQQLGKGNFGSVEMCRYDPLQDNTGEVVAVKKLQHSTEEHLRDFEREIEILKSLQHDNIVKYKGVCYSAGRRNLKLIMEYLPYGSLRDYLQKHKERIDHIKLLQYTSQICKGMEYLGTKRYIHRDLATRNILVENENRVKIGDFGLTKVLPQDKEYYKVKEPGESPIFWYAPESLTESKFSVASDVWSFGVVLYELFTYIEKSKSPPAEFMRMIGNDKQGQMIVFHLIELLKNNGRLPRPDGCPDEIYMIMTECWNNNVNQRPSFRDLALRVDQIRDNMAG
Experimental: as §1, with “The assays are carried out at ATP concentration equivalent to the ATP Km, and at 1 mM ATP.” left out, “Caliper.” for “Caliper. JAK2 at 1 nM final concentration and TYK2 at 9.75 nM are from Carna, and substrates used are ATP at 20 and 16 uM, respectively. JAK2 assay uses peptide 22 and TYK2 uses peptide 30 (Caliper), each at 3 uM.”

Chain of TYK2 (P29597 whole entry): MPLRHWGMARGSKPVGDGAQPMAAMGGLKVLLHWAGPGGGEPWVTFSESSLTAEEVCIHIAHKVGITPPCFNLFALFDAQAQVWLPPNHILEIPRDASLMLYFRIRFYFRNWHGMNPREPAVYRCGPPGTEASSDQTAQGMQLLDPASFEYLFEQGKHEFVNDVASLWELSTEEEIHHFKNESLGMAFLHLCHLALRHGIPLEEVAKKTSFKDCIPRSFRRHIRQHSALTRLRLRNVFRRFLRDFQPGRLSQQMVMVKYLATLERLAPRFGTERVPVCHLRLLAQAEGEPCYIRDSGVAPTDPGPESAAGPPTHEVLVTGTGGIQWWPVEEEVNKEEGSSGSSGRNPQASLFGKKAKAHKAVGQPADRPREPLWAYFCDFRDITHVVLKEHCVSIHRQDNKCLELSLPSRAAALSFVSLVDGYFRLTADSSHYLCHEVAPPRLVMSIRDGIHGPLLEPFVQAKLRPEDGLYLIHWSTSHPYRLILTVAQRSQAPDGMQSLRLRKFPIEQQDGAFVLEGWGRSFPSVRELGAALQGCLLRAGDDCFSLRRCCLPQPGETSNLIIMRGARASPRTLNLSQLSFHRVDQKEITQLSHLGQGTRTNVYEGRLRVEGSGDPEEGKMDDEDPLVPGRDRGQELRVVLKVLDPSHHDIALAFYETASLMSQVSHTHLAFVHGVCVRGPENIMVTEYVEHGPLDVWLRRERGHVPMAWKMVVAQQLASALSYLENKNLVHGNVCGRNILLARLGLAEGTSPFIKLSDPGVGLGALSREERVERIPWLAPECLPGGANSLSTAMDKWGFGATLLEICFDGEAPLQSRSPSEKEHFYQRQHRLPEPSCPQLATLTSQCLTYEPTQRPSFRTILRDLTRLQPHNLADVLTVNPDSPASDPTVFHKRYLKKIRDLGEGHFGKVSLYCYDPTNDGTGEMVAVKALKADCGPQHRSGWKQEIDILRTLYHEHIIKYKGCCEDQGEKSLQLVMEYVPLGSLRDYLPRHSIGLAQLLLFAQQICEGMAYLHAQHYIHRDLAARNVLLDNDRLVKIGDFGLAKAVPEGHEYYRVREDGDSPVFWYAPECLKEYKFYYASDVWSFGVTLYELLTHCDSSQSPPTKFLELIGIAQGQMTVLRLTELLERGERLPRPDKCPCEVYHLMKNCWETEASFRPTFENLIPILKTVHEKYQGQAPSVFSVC

SMILES | Ki (TYK2) | Ki (JAK2)
CCOC(=O)Cc1ccc(Nc2nc(-c3ccccc3Cl)nc3c2C(=O)NC3)cc1 [Compound I-1, Ethyl 2-(4-((2-(2-chlorophenyl)-5-oxo-6,7-dihydro-5H-pyrrolo[3,4-d]pyrimidin-4-yl)amino)phenyl)acetate] | < 10 nM | 100 to 1000 nM
CCOC(=O)Cc1ccc(Nc2nc(-c3c(Cl)cccc3Cl)nc3c2C(=O)NC3)cc1 [Compound I-5, ethyl 2-(4-((2-(2,6-dichlorophenyl)-5-oxo-6,7-dihydro-5H-pyrrolo[3,4-d]pyrimidin-4-yl)amino)phenyl)acetate] | < 10 nM | 100 to 1000 nM
O=C(O)Cc1ccc(Nc2nc(-c3c(Cl)cccc3Cl)nc3c2C(=O)NC3)cc1 [Compound I-6, 2-(4-((2-(2,6-dichlorophenyl)-5-oxo-6,7-dihydro-5H-pyrrolo[3,4-d]pyrimidin-4-yl)amino)phenyl)acetic Acid] | < 10 nM | 100 to 1000 nM
O=C(O)Cc1ccc(Nc2nc(-c3ccccc3Cl)nc3c2C(=O)NC3)cc1 [Compound I-7, 2-(4-((2-(2-chlorophenyl)-5-oxo-6,7-dihydro-5H-pyrrolo[3,4-d]pyrimidin-4-yl)amino)phenyl)acetic Acid] | 10 to 100 nM | > 1000 nM
NC(=O)Cc1ccc(Nc2nc(-c3ccccc3Cl)nc3c2C(=O)NC3)cc1 [Compound I-8, 2-(4-((2-(2-chlorophenyl)-5-oxo-6,7-dihydro-5H-pyrrolo[3,4-d]pyrimidin-4-yl)amino)phenyl)acetamide] | 10 to 100 nM | > 1000 nM
N#Cc1cc(Cl)c(-c2nc3c(c(Nc4ccc(CC(=O)O)cc4)n2)C(=O)NC3)c(Cl)c1 [Compound I-9, 2-(4-((2-(2,6-dichloro-4-cyanophenyl)-5-oxo-6,7-dihydro-5H-pyrrolo[3,4-d]pyrimidin-4-yl)amino)phenyl)acetic Acid] | < 10 nM | 100 to 1000 nM
O=C(O)Cc1ccc(Nc2nc(-c3c(F)cccc3Cl)nc3c2C(=O)NC3)cc1 [Compound I-10, 2-(4-((2-(2-chloro-6-fluorophenyl)-5-oxo-6,7-dihydro-5H-pyrrolo[3,4-d]pyrimidin-4-yl)amino)phenyl)acetic Acid] | < 10 nM | 100 to 1000 nM
O=C(Cc1ccc(Nc2nc(-c3c(F)cccc3F)nc3c2C(=O)NC3)cc1)NC1CCNCC1 [Compound I-11, 2-(4-((2-(2,6-difluorophenyl)-5-oxo-6,7-dihydro-5H-pyrrolo[3,4-d]pyrimidin-4-yl)amino)phenyl)-N-(piperidin-4-yl)acetamide] | < 10 nM | 100 to 1000 nM
O=C(Cc1ccc(Nc2nc(-c3c(F)cccc3F)nc3c2C(=O)NC3)cc1)NCC1CCNCC1 [Compound I-13, 2-(4-((2-(2,6-difluorophenyl)-5-oxo-6,7-dihydro-5H-pyrrolo[3,4-d]pyrimidin-4-yl)amino)phenyl)-N-(piperidin-4-ylmethyl)acetamide] | < 10 nM | 100 to 1000 nM
O=C(Cc1ccc(Nc2nc(-c3c(F)cccc3F)nc3c2C(=O)NC3)cc1)NC1CC2(CNC2)C1 [Compound I-14, 2-(4-((2-(2,6-difluorophenyl)-5-oxo-6,7-dihydro-5H-pyrrolo[3,4-d]pyrimidin-4-yl)amino)phenyl)-N-(2-azaspiro[3.3]heptan-6-yl)acetamide] | < 10 nM | 100 to 1000 nM
O=C1NCc2nc(-c3c(F)cccc3F)nc(Nc3ccc(CC(=O)N4CCC[C@@H]4CO)cc3)c21 [Compound I-15, (R)-2-(2,6-difluorophenyl)-4-((4-(2-(2-(hydroxymethyl)pyrrolidin-1-yl)-2-oxoethyl)phenyl)amino)-6,7-dihydro-5H-pyrrolo[3,4-d]pyrimidin-5-one] | < 10 nM | 100 to 1000 nM
CN(C(=O)Cc1ccc(Nc2nc(-c3c(F)cccc3F)nc3c2C(=O)NC3)cc1)C1CCNCC1 [Compound I-22, 2-(4-((2-(2,6-difluorophenyl)-5-oxo-6,7-dihydro-5H-pyrrolo[3,4-d]pyrimidin-4-yl)amino)phenyl)-N-methyl-N-(piperidin-4-yl)acetamide] | < 10 nM | 10 to 100 nM
O=C1NCc2nc(-c3c(F)cccc3F)nc(Nc3ccc(CC(=O)N4CC5(COC5)C4)cc3)c21 [Compound I-62, 2-(2,6-difluorophenyl)-4-((4-(2-oxo-2-(2-oxa-6-azaspiro[3.3]heptan-6-yl)ethyl)phenyl)amino)-6,7-dihydro-5H-pyrrolo[3,4-d]pyrimidin-5-one] | < 10 nM | 100 to 1000 nM
O=C1NCc2nc(-c3c(F)cccc3F)nc(Nc3ccc(C4CCCCC4)cc3)c21 [Compound I-197, 4-((4-cyclohexylphenyl)amino)-2-(2,6-difluorophenyl)-6,7-dihydro-5H-pyrrolo[3,4-d]pyrimidin-5-one] | 100 to 1000 nM | 
COc1ccc(Nc2cc(-c3c(F)cccc3F)nc3c2C(=O)N[C@H]3C)nc1 [Compound I-241, (S)-2-(2,6-difluorophenyl)-4-((5-methoxypyridin-2-yl)amino)-7-methyl-6,7-dihydro-5H-pyrrolo[3,4-b]pyridin-5-one] | 100 to 1000 nM | 

Second part, the compound after the results:

Ki (TYK2) | Ki (JAK2) | SMILES
< 10 nM | > 1000 nM | O=C(O)Cc1ccc(Nc2nc(-c3c(F)cccc3F)nc3c2C(=O)NC3)cc1 [Compound I-2, 2-(4-((2-(2,6-difluorophenyl)-5-oxo-6,7-dihydro-5H-pyrrolo[3,4-d]pyrimidin-4-yl)amino)phenyl)acetic Acid]
< 10 nM | 100 to 1000 nM | CCOC(=O)Cc1ccc(Nc2nc(-c3c(F)cccc3F)nc3c2C(=O)NC3)cc1 [Compound I-3, ethyl 2-(4-((2-(2,6-difluorophenyl)-5-oxo-6,7-dihydro-5H-pyrrolo[3,4-d]pyrimidin-4-yl)amino)phenyl)acetate]
< 10 nM | 100 to 1000 nM | CCOC(=O)Cc1ccc(Nc2nc(-c3c(F)cccc3Cl)nc3c2C(=O)NC3)cc1 [Compound I-4, ethyl 2-(4-((2-(2-chloro-6-fluorophenyl)-5-oxo-6,7-dihydro-5H-pyrrolo[3,4-d]pyrimidin-4-yl)amino)phenyl)acetate]
100 to 1000 nM | > 1000 nM | O=C(O)Cc1ccc(Nc2nc(-c3c(F)cccc3F)nc3c2C(=O)NC3)cn1 [Compound I-17]
100 to 1000 nM | > 1000 nM | COC(=O)Cc1ccc(Nc2nc(-c3c(F)cccc3F)nc3c2C(=O)NC3)cn1 [Compound I-18, methyl 2-(5-((2-(2,6-difluorophenyl)-5-oxo-6,7-dihydro-5H-pyrrolo[3,4-d]pyrimidin-4-yl)amino)pyridin-2-yl)acetate]
100 to 1000 nM | > 1000 nM | O=C(Cc1ccc(Nc2nc(-c3c(F)cccc3F)nc3c2C(=O)NC3)cn1)NC1CCNCC1 [Compound I-19, 2-(5-((2-(2,6-difluorophenyl)-5-oxo-6,7-dihydro-5H-pyrrolo[3,4-d]pyrimidin-4-yl)amino)pyridin-2-yl)-N-(piperidin-4-yl)acetamide]
10 to 100 nM | > 1000 nM | CCNC(=O)Cc1ccc(Nc2nc(-c3c(F)cccc3F)nc3c2C(=O)NC3)cn1 [Compound I-23, 2-(5-((2-(2,6-difluorophenyl)-5-oxo-6,7-dihydro-5H-pyrrolo[3,4-d]pyrimidin-4-yl)amino)pyridin-2-yl)-N-ethylacetamide]
< 10 nM | 100 to 1000 nM | O=C(Cc1ccc(Nc2nc(-c3c(F)cccc3F)nc3c2C(=O)NC3)cc1)N[C@@H]1CCCNC1 [Compound I-61, (R)-2-(4-((2-(2,6-difluorophenyl)-5-oxo-6,7-dihydro-5H-pyrrolo[3,4-d]pyrimidin-4-yl)amino)phenyl)-N-(piperidin-3-yl)acetamide]
10 to 100 nM |  | O=C1NCc2nc(-c3c(F)cccc3F)nc(Nc3ccc(OC(F)(F)F)cc3)c21 [Compound I-184, 2-(2,6-difluorophenyl)-4-((4-(trifluoro-methoxy)phenyl)amino)-6,7-dihydro-5H-pyrrolo[3,4-d]pyrimidin-5-one]
10 to 100 nM |  | O=C1NCc2nc(-c3c(F)cccc3F)nc(Nc3ccc(S(=O)(=O)C(F)(F)F)cc3)c21 [Compound I-236, 2-(2,6-difluorophenyl)-4-((4-((trifluoromethyl)sulfonyl)phenyl)-amino)-6,7-dihydro-5H-pyrrolo[3,4-d]pyrimidin-5-one]
10 to 100 nM |  | Cc1ccc(Nc2nc(-c3c(F)cccc3F)nc3c2C(=O)NC3)cc1F [Compound I-292, 2-(2,6-difluorophenyl)-4-((3-fluoro-4-methylphenyl)amino)-6,7-dihydro-5H-pyrrolo[3,4-d]pyrimidin-5-one]
